The supplement of paper PMC13207355

Columns and labels:
Conditions in all cases: exposure time: 72 h
[1] = tested on: E34 (patient-derived glioblastoma stem cells of proneural subtype); test: phenotypic distance (Euclidean, principal components) from DMSO controls (arbitrary units); higher = stronger morphological change
[2] = tested on: E31 (patient-derived glioblastoma stem cells of proneural subtype); test: as above
[3] = tested on: FT3469 (normal neural stem cell line); test: as above
[4] = tested on: E28 (patient-derived glioblastoma stem cells of classical subtype); test: as above
[5] = tested on: E13 (patient-derived glioblastoma stem cells of classical subtype); test: as above
[6] = tested on: E57 (patient-derived glioblastoma stem cells of mesenchymal subtype); test: as above
[7] = tested on: E21 (patient-derived glioblastoma stem cells of mesenchymal subtype); test: as above
[8] = tested on: E34; test: surviving fraction (nuclei count normalised to DMSO); higher = more cells surviving (less toxic)
[9] = tested on: E31; test: as above
[10] = tested on: FT3469; test: as above
[11] = tested on: E28; test: as above
[12] = tested on: E13; test: as above
[13] = tested on: E57; test: as above
[14] = tested on: E21; test: as above
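For phenotypic distance (Euclidean, principal components) from DMSO controls in this document: cell Painting imaging in 384-well plates, CellProfiler features reduced to at least 20 principal components, Euclidean distance versus same-plate DMSO vehicle wells (0.1% v/v), median over six images per well.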
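For surviving fraction (nuclei count normalised to DMSO) in this document: nuclei counted by high-content imaging of Hoechst-stained cells in laminin-coated 384-well plates, relative to 0.1% DMSO vehicle wells, with staurosporine as cell-death control.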

CCCSc1ccc2[nH]c(NC(=O)OC)nc2c1 [Albendazole]
Conditions | phenotypic distance | surviving fraction
[1], 4.1 nM | 0.51 | –
[1], 12.3 nM | 1.47 | –
[1], 37 nM | 1.32 | –
[1], 111.1 nM | 0.857 | –
[1], 333.3 nM | 2.54 | –
[1], 1000 nM | 3.76 | –
[1], 3000 nM | 5.5 | –
[2], 4.1 nM | 0.384 | –
[2], 12.3 nM | 0.712 | –
[2], 37 nM | 0.564 | –
[2], 111.1 nM | 1.13 | –
[2], 333.3 nM | 3.4 | –
[2], 1000 nM | 5.94 | –
[2], 3000 nM | 5.22 | –
[3], 4.1 nM | 0.912 | –
[3], 12.3 nM | 1.05 | –
[3], 37 nM | 0.721 | –
[3], 111.1 nM | 1.33 | –
[3], 333.3 nM | 2.27 | –
[3], 1000 nM | 3.43 | –
[3], 3000 nM | 3.98 | –
[4], 4.1 nM | 0.748 | –
[4], 12.3 nM | 0.904 | –
[4], 37 nM | 0.875 | –
[4], 111.1 nM | 1.25 | –
[4], 333.3 nM | 2.28 | –
[4], 1000 nM | 3.22 | –
[4], 3000 nM | 3.85 | –
[5], 4.1 nM | 1.01 | –
[5], 12.3 nM | 0.56 | –
[5], 37 nM | 0.737 | –
[5], 111.1 nM | 2.95 | –
[5], 333.3 nM | 4.43 | –
[5], 1000 nM | 4.68 | –
[5], 3000 nM | 7.36 | –
[6], 4.1 nM | 0.729 | –
[6], 12.3 nM | 1.11 | –
[6], 37 nM | 0.859 | –
[6], 111.1 nM | 1.5 | –
[6], 333.3 nM | 3.52 | –
[6], 1000 nM | 5.59 | –
[6], 3000 nM | 4.71 | –
[7], 4.1 nM | 1.02 | –
[7], 12.3 nM | 0.918 | –
[7], 37 nM | 1.01 | –
[7], 111.1 nM | 1.35 | –
[7], 333.3 nM | 3.4 | –
[7], 1000 nM | 7.12 | –
[7], 3000 nM | 8.62 | –
[8], 4.1 nM | – | 0.934
[8], 12.3 nM | – | 1.06
[8], 37 nM | – | 0.937
[8], 111.1 nM | – | 0.927
[8], 333.3 nM | – | 0.656
[8], 1000 nM | – | 0.476
[8], 3000 nM | – | 0.439
[9], 4.1 nM | – | 0.993
[9], 12.3 nM | – | 0.833
[9], 37 nM | – | 0.874
[9], 111.1 nM | – | 0.758
[9], 333.3 nM | – | 0.408
[9], 1000 nM | – | 0.186
[9], 3000 nM | – | 0.0928
[10], 4.1 nM | – | 0.783
[10], 12.3 nM | – | 0.812
[10], 37 nM | – | 0.76
[10], 111.1 nM | – | 0.924
[10], 333.3 nM | – | 0.725
[10], 1000 nM | – | 0.662
[10], 3000 nM | – | 0.504
[11], 4.1 nM | – | 0.86
[11], 12.3 nM | – | 0.988
[11], 37 nM | – | 0.734
[11], 111.1 nM | – | 1.04
[11], 333.3 nM | – | 0.719
[11], 1000 nM | – | 0.536
[11], 3000 nM | – | 0.28
[12], 4.1 nM | – | 0.787
[12], 12.3 nM | – | 0.877
[12], 37 nM | – | 0.931
[12], 111.1 nM | – | 0.655
[12], 333.3 nM | – | 0.439
[12], 1000 nM | – | 0.373
[12], 3000 nM | – | 0.222
[13], 4.1 nM | – | 1.02
[13], 12.3 nM | – | 0.99
[13], 37 nM | – | 0.873
[13], 111.1 nM | – | 0.909
[13], 333.3 nM | – | 0.715
[13], 1000 nM | – | 0.257
[13], 3000 nM | – | 0.0825
[14], 4.1 nM | – | 0.887
[14], 12.3 nM | – | 0.807
[14], 37 nM | – | 0.834
[14], 111.1 nM | – | 0.804
[14], 333.3 nM | – | 0.755
[14], 1000 nM | – | 0.169
[14], 3000 nM | – | 0.118
